Results as given in patent US20250296971A1, “GASTRIC INHIBITORY PEPTIDE RECEPTOR LIGANDS” (priority 2021, published 2025).
Where two headings read alike, the source gives them in different places. *1 amine or outer side, *2 acyl side, *3 side chain or, on linkers, in order; H or OH if unused. Where a SMILES comes first, the peptide text is derived from it. Bridges are numbered along the chain shown (N, C = ends). Side-chain parts run from the residue outwards. [ ]: non-standard residue; d: D form. The star is where a group is joined. DOTA(Ga) = O=C1CN2CCN3CCN(CC(=O)*)CCN(CC2)CC(=O)[O][Ga]([O]1)[O]C(=O)C3; DOTA(Lu) = O=C1CN2CCN3CCN(CC(=O)*)CCN(CC2)CC(=O)[O][Lu]([O]1)[O]C(=O)C3; NH(1-deoxy-D-glucityl) = OC[C@@H](O)[C@@H](O)[C@H](O)[C@@H](O)CN*; Pro(trans-4-NH2) = O=C([C@@H]1C[C@@H](N[*:3])CN1[*:1])[*:2]; DOTA = O=C(O)CN1CCN(CC(=O)O)CCN(CC(=O)*)CCN(CC(=O)O)CC1; Trp(5-Cl) = N[C@@H](Cc1c[nH]c2ccc(Cl)cc12)C(=O)O; Pyridine(2,6-diCH2) = c1cc(C[*:1])nc(C[*:2])c1; Pro(4R-NH2) = N[C@H]1CN[C@H](C(=O)O)C1; Glutaryl = O=C(CCCC(=O)[*:2])[*:1]; Hyp = O=C(O)[C@@H]1C[C@@H](O)CN1; X1 = O=C(CN1CCC(N[*:1])CC1)[*:2]; Suc = O=C(CCC(=O)[*:2])[*:1]; hSer = N[C@@H](CCO)C(=O)O; Api = NC1(C(=O)O)CCNCC1

Columns and labels:
[1] = target: T1, GIPR (CHO-K1-hGIPR cells) (Homo sapiens, UniProt P48546); assay: FACS binding assay; settings: competition with 20 nM GIP-057, 4° C., 1 hour
T1 construct: host or cells: CHO-K1
T1 sequence (P48546 22-466): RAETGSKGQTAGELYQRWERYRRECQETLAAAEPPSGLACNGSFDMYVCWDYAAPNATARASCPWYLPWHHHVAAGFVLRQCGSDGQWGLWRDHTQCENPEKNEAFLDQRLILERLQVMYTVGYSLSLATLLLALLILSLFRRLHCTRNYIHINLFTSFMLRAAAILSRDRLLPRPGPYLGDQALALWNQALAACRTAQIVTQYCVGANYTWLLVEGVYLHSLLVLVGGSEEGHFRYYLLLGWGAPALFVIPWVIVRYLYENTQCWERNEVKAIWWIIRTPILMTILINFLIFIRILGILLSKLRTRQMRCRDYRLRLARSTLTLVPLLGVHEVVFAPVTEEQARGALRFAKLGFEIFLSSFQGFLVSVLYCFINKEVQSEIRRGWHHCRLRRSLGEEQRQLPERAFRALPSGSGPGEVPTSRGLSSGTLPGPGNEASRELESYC
Summary of the method: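 Median fluorescence in the APC channel, measured on washed CHO-K1 cells overexpressing human GIPR, was fitted by four-parameter logistic regression against peptide concentration to yield EC50 or IC50 values. Secondary labelling used APC-streptavidin (1 μg/mL, 30 min, ice).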

[2] = target: T2, human GIP receptor (bioGIPR) (Homo sapiens, UniProt P48546); assay: Surface plasmon resonance (SPR) based binding assay; settings: for t1/2 Category: SPR dissociation half-life
T2 construct: Biotinylate extracellular of the human GIP receptor (bioGIPR, Proteros biostructures GmbH, lot #02/2b); purchased Proteros biostructures GmbH lot #02/2b
T2 sequence (P48546 22-138 limits assumed): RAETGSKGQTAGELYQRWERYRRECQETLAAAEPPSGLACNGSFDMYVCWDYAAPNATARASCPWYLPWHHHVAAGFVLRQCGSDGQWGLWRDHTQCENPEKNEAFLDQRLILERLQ
Protocol: Surface plasmon resonance (SPR) studies were performed using a Biacore™ T200 SPR system. Briefly, polarized light is directed towards a gold-labeled sensor surface, and minimum intensity reflected light is detected. The angle of reflected light changes as molecules bind and dissociate.
Biotinylate extracellular of the human GIP receptor (bioGIPR, Proteros biostructures GmbH, lot #02/2b) was captured on a biotin capture chip (Biotin CAPture Kit, Series S, GE Healthcare, Cat #28-9202-34). bioGIPR was diluted in Running Buffer (HBST from Xantec Analytics; […], 0.05% Tween20, 0.1% DMSO) to a final concentration 100 nM and than flushed over the Fc-capture chip to immobilized ˜3500 RUs.
Stock solutions of test compounds were prepared by dissolving each compound in DMSO. DMSO stock solution were diluted 1:1000 in Running Buffer without DMSO. Further sequential dilutions were made with Running Buffer containing 0.1% DMSO. SPR binding analyses were performed in Single Cycle Kinetic (SCK) mode at 25° C. Flow cell without immobilized bioGIPR served as reference flowcell. After each SCK run, bioGIRP and the Biotin Capture Reagent was removed with Regeneration Solution (6 M Guanidium, 0.75 M NaOH).
In between every three SCK measurements, a blank run with Running Buffer instead of test compound was included to correct for baseline drifts (double blanking method).
For each test compound, SPR raw data in the form of resonance units (RU) were plotted as sensorgrams using the Biacore™ T200 control software. The signal from the blank sensorgram was subtracted from that of the test compound sensorgram (blank corrected). The blank corrected sensorgram was corrected for baseline drift by subtracting the sensorgram of a SCK run without the test compound (running buffer only). The association rate (kon), dissociation rate (koff), dissociation constant (KD), and t1/2 were calculated from blank corrected SPR data using the 1:1 Langmuir binding model from the Biacore™ T200 evaluation software. Raw data and fit results were imported as text files in IDBS. The pKD value (negative decadic logarithm of dissociation constant) was calculated in the IDBS excel template.

[3] = read-out: pIC50 Category (converted)
[4] = Single Cycle Kinetic mode, 25° C.
[5] = SPR, Single Cycle Kinetic mode, 25° C., 1:1 Langmuir binding model, read-out: pKD Category (converted)

`CC[C@H](C)[C@@H]1NC(=O)[C@H](CC(C)C)NC(=O)C2(CCNCC2)NC(=O)[C@@H](NC(=O)[C@@H](CC(C)C)NC(=O)[C@H](CCC(=O)O)NC(=O)[C@@H]2C[C@@H](N)CN2C(=O)[C@H](Cc2c[nH]c3ccc(Cl)cc23)NC(=O)[C@H](Cc2c[nH]c3ccccc23)NC(=O)CCC(=O)O)CSCc2cccc(n2)CSC[C@@H](C(=O)NC2CCN(CC(=O)N[C@H](CCC(=O)NC[C@H](O)[C@@H](O)[C@H](O)[C@H](O)CO)C(=O)N[C@@H](CCCCNC(=O)CN3CCN(CC(=O)O)CCN(CC(=O)O)CCN(CC(=O)O)CC3)C(N)=O)CC2)NC1=O` [GIP-022, HO-Succinyl-Trp-5Clw-Tap-Glu-leu-[Cys(2Lut)-Apc-Leu-Ile-Cys]-APAc-glu(AGLU)-Lys(DOTA)-NH2] (Suc-W[Trp(5-Cl)][Pro(4R-NH2)]E[dL]C[Api]LIC[X1][dE](NH(1-deoxy-D-glucityl))K(DOTA)-NH2; linker 6-10 via Pyridine(2,6-diCH2)) was tested, and the IC50 [1, 3] was under 10 nM, the “t1/2 Category” value [2, 4] was “A (t1/2 values>15 min)” and the Kd [2, 5] was under 1 nM.

With `CC[C@H](C)[C@@H]1NC(=O)[C@H](CC(C)C)NC(=O)C2(CCN(C(=O)CN3CCN(CC(=O)O)CCN(CC(=O)O)CCN(CC(=O)O)CC3)CC2)NC(=O)[C@@H](NC(=O)[C@@H](CC(C)C)NC(=O)[C@H](CCO)NC(=O)[C@@H]2C[C@@H](NC(=O)CCCC(=O)NC[C@H](O)[C@@H](O)[C@H](O)[C@H](O)CO)CN2C(=O)[C@H](Cc2c[nH]c3ccc(Cl)cc23)NC(=O)[C@H](Cc2c[nH]c3ccccc23)NC(=O)[C@H](CO)NC(=O)CN2CCC(NC(=O)CCCC(=O)NC[C@H](O)[C@@H](O)[C@H](O)[C@H](O)CO)CC2)CSCc2cccc(n2)CSC[C@@H](C(=O)NC2CCN(CC(=O)N[C@H](CCC(=O)NC[C@H](O)[C@@H](O)[C@H](O)[C@H](O)CO)C(N)=O)CC2)NC1=O` [GIP-046, AGLU-Glutar-APAc-Ser-Trp-5Clw-Tap(AGLU-Glutar)-Hse-leu-[Cys(2Lut)-Apc(DOTA)-Leu-Ile-Cys]-APAc-glu(AGLU)-NH2] ({NH(1-deoxy-D-glucityl)-Glutaryl}-[X1]SW[Trp(5-Cl)][Pro(trans-4-NH2)]([Glutaryl-NH(1-deoxy-D-glucityl)])[hSer][dL]C[Api](DOTA)LIC[X1][dE](NH(1-deoxy-D-glucityl))-NH2; linker 8-12 via Pyridine(2,6-diCH2)) the IC50 [1, 3] was 10 to 79.4 nM, the “t1/2 Category” value [2, 4] was “D (t1/2<2.0 min)” and the Kd [2, 5] was 1 to 7.94 nM.

In the case of `CC[C@H](C)[C@@H]1NC(=O)[C@H](CC(C)C)NC(=O)C2(CCN(C(=O)CN3CCN(CC(=O)O)CCN(CC(=O)O)CCN(CC(=O)O)CC3)CC2)NC(=O)[C@@H](NC(=O)[C@@H](CC(C)C)NC(=O)[C@H](CCO)NC(=O)[C@@H]2C[C@@H](N)CN2C(=O)[C@H](Cc2c[nH]c3ccc(Cl)cc23)NC(=O)[C@H](Cc2c[nH]c3ccccc23)NC(=O)[C@H](CO)NC(=O)CN2CCC(NC(=O)CCCC(=O)NC[C@H](O)[C@@H](O)[C@H](O)[C@H](O)CO)CC2)CSCc2cccc(n2)CSC[C@@H](C(=O)NC2CCN(CC(=O)N[C@H](CCC(=O)NC[C@H](O)[C@@H](O)[C@H](O)[C@H](O)CO)C(N)=O)CC2)NC1=O` [GIP-048, AGLU-Glutar-APAc-Ser-Trp-5Clw-Tap-Hse-leu-[Cys(2Lut)-Apc(DOTA)-Leu-Ile-Cys]-APAc-glu(AGLU)-NH2] ({NH(1-deoxy-D-glucityl)-Glutaryl}-[X1]SW[Trp(5-Cl)][Pro(4R-NH2)][hSer][dL]C[Api](DOTA)LIC[X1][dE](NH(1-deoxy-D-glucityl))-NH2; linker 8-12 via Pyridine(2,6-diCH2)), the IC50 [1, 3] is reported as 10 to 79.4 nM, the “t1/2 Category” value [2, 4] is reported as “D (t1/2<2.0 min)” and the Kd [2, 5] is reported as 1 to 7.94 nM.

For `CC[C@H](C)[C@@H]1NC(=O)[C@H](CC(C)C)NC(=O)C2(CCN(C(=O)CN3CCN(CC(=O)O)CCN(CC(=O)O)CCN(CC(=O)O)CC3)CC2)NC(=O)[C@@H](NC(=O)[C@@H](CC(C)C)NC(=O)[C@H](CCC(=O)O)NC(=O)[C@@H]2C[C@@H](O)CN2C(=O)[C@H](Cc2c[nH]c3ccc(Cl)cc23)NC(=O)[C@H](Cc2c[nH]c3ccccc23)NC(=O)[C@H](CCO)NC(=O)CN2CCC(NC(=O)CCCC(=O)NC[C@H](O)[C@@H](O)[C@H](O)[C@H](O)CO)CC2)CSCc2cccc(n2)CSC[C@@H](C(=O)NC2CCN(CC(=O)N[C@H](CCC(=O)NC[C@H](O)[C@@H](O)[C@H](O)[C@H](O)CO)C(N)=O)CC2)NC1=O` [GIP-049, AGLU-Glutar-APAc-Hse-Trp-5Clw-Hyp-Glu-leu-[Cys(2Lut)-Apc(DOTA)-Leu-Ile-Cys]-APAc-glu(AGLU)-NH2] ({NH(1-deoxy-D-glucityl)-Glutaryl}-[X1][hSer]W[Trp(5-Cl)][Hyp]E[dL]C[Api](DOTA)LIC[X1][dE](NH(1-deoxy-D-glucityl))-NH2; linker 8-12 via Pyridine(2,6-diCH2)), the IC50 [1, 3] was 10 to 79.4 nM, the “t1/2 Category” value [2, 4] was “D (t1/2<2.0 min)” and the Kd [2, 5] was 1 to 7.94 nM.

For `CC[C@H](C)[C@@H]1NC(=O)[C@H](CC(C)C)NC(=O)C2(CCN(C(=O)CN3CCN4CCN5CCN(CC3)CC(=O)[O][Lu]([O]C(=O)C5)[O]C(=O)C4)CC2)NC(=O)[C@@H](NC(=O)[C@@H](CC(C)C)NC(=O)[C@H](CCC(=O)O)NC(=O)[C@@H]2C[C@@H](N)CN2C(=O)[C@H](Cc2c[nH]c3ccc(Cl)cc23)NC(=O)[C@H](Cc2c[nH]c3ccccc23)NC(=O)[C@H](CC(=O)O)NC(=O)CCCC(=O)NC[C@H](O)[C@@H](O)[C@H](O)[C@H](O)CO)CSCc2cccc(n2)CSC[C@@H](C(=O)NC2CCN(CC(=O)N[C@H](CCC(=O)NC[C@H](O)[C@@H](O)[C@H](O)[C@H](O)CO)C(N)=O)CC2)NC1=O` [GIP-066, Lutetium-Complex of AGLU-Glutar-Asp-Trp-5Clw-Hyp-Glu-leu-[Cys(2Lut)-Apc(DOTA)-Leu-Ile-Cys]-APAc-glu(AGLU)-NH2] ({NH(1-deoxy-D-glucityl)-Glutaryl}-DW[Trp(5-Cl)][Pro(4R-NH2)]E[dL]C[Api](DOTA(Lu))LIC[X1][dE](NH(1-deoxy-D-glucityl))-NH2; linker 7-11 via Pyridine(2,6-diCH2)), the IC50 ([1]; pIC50 Category) was under 10 nM, the Kd [2] was under 1 nM and the “t1/2 Category” value [2, 4] was “A (t1/2 values>15 min)”.

For `CC[C@H](C)[C@@H]1NC(=O)[C@H](CC(C)C)NC(=O)C2(CCN(C(=O)CN3CCN4CCN5CCN(CC3)CC(=O)[O][Ga]([O]C(=O)C5)[O]C(=O)C4)CC2)NC(=O)[C@@H](NC(=O)[C@@H](CC(C)C)NC(=O)[C@H](CCC(=O)O)NC(=O)[C@@H]2C[C@@H](N)CN2C(=O)[C@H](Cc2c[nH]c3ccc(Cl)cc23)NC(=O)[C@H](Cc2c[nH]c3ccccc23)NC(=O)[C@H](CC(=O)O)NC(=O)CCCC(=O)NC[C@H](O)[C@@H](O)[C@H](O)[C@H](O)CO)CSCc2cccc(n2)CSC[C@@H](C(=O)NC2CCN(CC(=O)N[C@H](CCC(=O)NC[C@H](O)[C@@H](O)[C@H](O)[C@H](O)CO)C(N)=O)CC2)NC1=O` [GIP-069, Gallium-Complex of AGLU-Glutar-Asp-Trp-5Clw-Tap-Glu-leu-[Cys(2Lut)-Apc(DOTA)-Leu-Ile-Cys]-APAc-glu(AGLU)-NH2] ({NH(1-deoxy-D-glucityl)-Glutaryl}-DW[Trp(5-Cl)][Pro(4R-NH2)]E[dL]C[Api](DOTA(Ga))LIC[X1][dE](NH(1-deoxy-D-glucityl))-NH2; linker 7-11 via Pyridine(2,6-diCH2)), the IC50 [1, 3] was under 10 nM, the “t1/2 Category” value [2, 4] was “A (t1/2 values>15 min)” and the Kd [2, 5] was under 1 nM.
